Measurements taken from patent publication US9610285B2, “Compositions for controlling food intake and uses therefor” (UNIVERSITY OF FLORIDA RESEARCH FOUNDATION, INCORPORATED, priority 2011, dated 2017).
Counter-ions that a name gives are not always drawn. Marks after values point to notes of the source that are not given here.

How the values were obtained:
Assay type in all cases: in vivo, rat
Male Sprague-Dawley rats [1] = test: Palatable food intake following drug injections in binge-eating rats (Example 2); details: for Effect on palatable food (fat) intake, in words / Effect on palatable food (sugar) intake, in words / Effect on palatable food (sugar-fat) intake, in words: one-way ANOVA over saline, low and high dose
From the text: (§1) Male Sprague-Dawley rats, 250-300 g at the onset of the experiment, were obtained from Taconic Farms (Germantown, N.Y., USA). Rats were housed individually on a 12-h reversed light/dark cycle and given 1 wk to acclimate before diet training began.
(§2) The rats were divided into groups (n=10/group) matched for body weight and assigned to one of the following dietary conditions: (1) Binge Sugar, (2) Binge Fat or (3) Binge Sugar-Fat. All rats received palatable diets and standard rodent chow (LabDiet #5001, PMI Nutrition International, Richmond, Ind., USA; 10% fat, 20% protein, 70% carbohydrate, 3.02 kcal/g) for 12 h/day, starting 4 h after the onset of the dark cycle. Water was available ad libitum.
(§3) All palatable foods were mixed in the laboratory. The Binge Sugar group had access to a 10% (w/v) sucrose solution (Domino® Granulated Pure Cane Sugar, dissolved in tap water, 0.4 kcal/mL), the Binge Fat group had access to a 35% (w/v) fat emulsion (3.1 kcal/mL) and the Binge Sugar-Fat group had access to a 10% (w/v) sugar solution and 35% (w/v) fat emulsion (3.5 kcal/mL). Both emulsions were made with Wesson® Pure Vegetable Oil in tap water and 0.6% (w/v) Emplex, a commercially available emulsifier (American Ingredients Company, Kansas City, Mo., USA). Palatable food intakes were recorded daily. Chow intake was recorded weekly. Body weights were taken at the beginning and end of the 21-day diet period.
(§4) After 21 days on these diets, drug testing began. During testing, diet regimens were maintained. Approximately 3.5 h into the dark cycle, animals were weighed and intraperitoneal (i.p.) injections of drug were given (according to the schedule below). 30 min later (4 h into the dark cycle) palatable food and chow were made available to the rats. For the first 3 days, rats were acclimated to handling and daily vehicle injections (0.9% saline, Hospira, Lake Forest, Ill., USA, i.p. 1 mL/kg). For days 4-16 of drug testing, either vehicle or drug was alternatively administered, starting with drug on day 4. […] Intake of palatable food and chow was measured hourly after injection for 4 h and again at the end of the 12-h access period.
(§5) Palatable food and standard chow intakes following saline injections between days 4-16 were averaged. All data were analyzed using one-way ANOVAs with post hoc Multiple Comparisons, when appropriate. In Tables 4-7, values having the same letter superscript are statistically different from one another.

Male Sprague-Dawley rats [2] = test: Total caloric intake following drug injections in binge-eating rats (Example 2); details: for Effect on total caloric intake, in words: one-way ANOVA over saline, low and high dose
From the text: as §1, §2, §3, §4, §5

rats = test: Binge eating rats, palatable food and chow intake (Example 1, FIGS. 1-5); details: drug alone, i.p., figure legends
Experimental: Baclofen (at 1.0 and 1.8 mg/kg, administered i.p.)
Baclofen+naltrexone (mixed low and mixed high)
1. Binge Sugar (10% sucrose solution, w/v)
2. Binge Fat (35% oil emulsion, w/v)
3. Binge Sugar/Fat (10% sucrose, 35% oil emulsion, w/v)
Groups of animals (rats) were maintained on their diets for 3 weeks to establish stable binge eating behavior. After this period of time, the rats were administered three days of daily i.p. injections of saline (to acclimate to the injection procedure), and sugar/chow intake was measured after the first hour of access and then hourly for the next 3 hours, as well as at the end of the 12-h access period. After this three-day period, rats were given baclofen+naloxone, and measurements taken as described above. Other dosage amounts of baclofen and naloxone were tested, as were the effects of these compounds alone (with measurements being performed as described above). Vehicle injections were performed between the various tests in order to allow for suitable clearance of compounds from the animals. […] Thus, the treatment appears ideally suited for food addicts, hedonic overeaters and changes food choice but not appetite.

Male Sprague-Dawley rats [3] = test: Standard chow intake following drug injections in binge-eating rats (Example 2); details: for Effect on standard chow intake, in words: one-way ANOVA over saline, low and high dose
From the text: as §1, §2, §3, §4, §5

[4] = Binge Fat group, 1 h, high dose (naltrexone 1.0 mg/kg, baclofen 1.8 mg/kg, or both, i.p.)
[5] = Binge Fat group, 1 h, low dose (naltrexone 0.1 mg/kg, baclofen 1.0 mg/kg, or both, i.p.)
[6] = Binge Fat group, 12 h, high dose (naltrexone 1.0 mg/kg, baclofen 1.8 mg/kg, or both, i.p.)
[7] = Binge Fat group, 12 h, low dose (naltrexone 0.1 mg/kg, baclofen 1.0 mg/kg, or both, i.p.)
[8] = Binge Sugar group, 1 h, high dose (naltrexone 1.0 mg/kg, baclofen 1.8 mg/kg, or both, i.p.)
[9] = Binge Sugar group, 1 h, low dose (naltrexone 0.1 mg/kg, baclofen 1.0 mg/kg, or both, i.p.)
[10] = Binge Sugar group, 12 h, high dose (naltrexone 1.0 mg/kg, baclofen 1.8 mg/kg, or both, i.p.)
[11] = Binge Sugar group, 12 h, low dose (naltrexone 0.1 mg/kg, baclofen 1.0 mg/kg, or both, i.p.)
[12] = Binge Sugar-Fat group, 1 h, high dose (naltrexone 1.0 mg/kg, baclofen 1.8 mg/kg, or both, i.p.)
[13] = Binge Sugar-Fat group, 1 h, low dose (naltrexone 0.1 mg/kg, baclofen 1.0 mg/kg, or both, i.p.)
[14] = Binge Sugar-Fat group, 12 h, high dose (naltrexone 1.0 mg/kg, baclofen 1.8 mg/kg, or both, i.p.)
[15] = Binge Sugar-Fat group, 12 h, low dose (naltrexone 0.1 mg/kg, baclofen 1.0 mg/kg, or both, i.p.)

O=C1CC[C@@]2(O)[C@H]3Cc4ccc(O)c5c4[C@@]2(CCN3CC2CC2)[C@H]1O5 [Naltrexone, naltrexone hydrochloride]
1-H Palatable Food Intake (Male Sprague-Dawley rats [1]; [4]): 9.9 ± 2.0 kcal | Palatable food intake as a percent of intake after saline injections, 1-H Intake (%) (Male Sprague-Dawley rats [1]; [4]): 59% | Palatable food intake as a percent of intake after saline injections, 1-H Intake (%) (Male Sprague-Dawley rats [1]; [5]): 70% | Effect on palatable food (fat) intake, in words (Male Sprague-Dawley rats [1]; Binge Fat group, 1 h): no significant effect | 12-H Palatable Food Intake (Male Sprague-Dawley rats [1]; [6]): 53.3 ± 4.5 kcal | Palatable food intake as a percent of intake after saline injections, 12-H Intake (%) (Male Sprague-Dawley rats [1]; [6]): 91% | 12-H Palatable Food Intake (Male Sprague-Dawley rats [1]; [7]): 49.9 ± 3.6 kcal | Palatable food intake as a percent of intake after saline injections, 12-H Intake (%) (Male Sprague-Dawley rats [1]; [7]): 85% | Effect on palatable food (fat) intake, in words (Male Sprague-Dawley rats [1]; Binge Fat group, 12 h): no significant effect | 1-H Palatable Food Intake (Kcal) (Male Sprague-Dawley rats [1]; [8]): 2.6 ± 0.4^a Kcal | Palatable food intake as a percent of intake after saline injections, 1-H Intake (%) (Male Sprague-Dawley rats [1]; [8]): 92% | 1-H Palatable Food Intake (Kcal) (Male Sprague-Dawley rats [1]; [9]): 4.4 ± 0.7^a Kcal | Palatable food intake as a percent of intake after saline injections, 1-H Intake (%) (Male Sprague-Dawley rats [1]; [9]): 158% | Effect on palatable food (sugar) intake, in words (Male Sprague-Dawley rats [1]; Binge Sugar group, 1 h): significantly decreased | 12-H Palatable Food Intake (Kcal) (Male Sprague-Dawley rats [1]; [10]): 10.8 ± 1.8^r Kcal | Palatable food intake as a percent of intake after saline injections, 12-H Intake (%) (Male Sprague-Dawley rats [1]; [10]): 85% | 12-H Palatable Food Intake (Kcal) (Male Sprague-Dawley rats [1]; [11]): 18.7 ± 2.4^r Kcal | Palatable food intake as a percent of intake after saline injections, 12-H Intake (%) (Male Sprague-Dawley rats [1]; [11]): 92% | Effect on palatable food (sugar) intake, in words (Male Sprague-Dawley rats [1]; Binge Sugar group, 12 h): significantly decreased | 1-H Palatable Food Intake (Male Sprague-Dawley rats [1]; [12]): 17.6 ± 3.5 kcal | Palatable food intake as a percent of intake after saline injections, 1-H Intake (%) (Male Sprague-Dawley rats [1]; [12]): 75% | 1-H Palatable Food Intake (Male Sprague-Dawley rats [1]; [13]): 17.3 ± 1.7 kcal | Palatable food intake as a percent of intake after saline injections, 1-H Intake (%) (Male Sprague-Dawley rats [1]; [13]): 74% | Effect on palatable food (sugar-fat) intake, in words (Male Sprague-Dawley rats [1]; Binge Sugar-Fat group, 1 h): no effect | 12-H Palatable Food Intake (Male Sprague-Dawley rats [1]; [14]): 83.3 ± 8.1 kcal | Palatable food intake as a percent of intake after saline injections, 12-H Intake (%) (Male Sprague-Dawley rats [1]; [14]): 109% | 12-H Palatable Food Intake (Male Sprague-Dawley rats [1]; [15]): 70.6 ± 3.4 kcal | Palatable food intake as a percent of intake after saline injections, 12-H Intake (%) (Male Sprague-Dawley rats [1]; [15]): 92% | Effect on palatable food (sugar-fat) intake, in words (Male Sprague-Dawley rats [1]; Binge Sugar-Fat group, 12 h): no effect | 1-H Total Caloric Intake (Male Sprague-Dawley rats [2]; [4]): 19.9 ± 3.2 kcal | 1-H Total Caloric Intake (Male Sprague-Dawley rats [2]; [5]): 20.2 ± 3.0 kcal | 12-H Total Caloric Intake (Male Sprague-Dawley rats [2]; [6]): 90.3 ± 8.3 kcal | 12-H Total Caloric Intake (Male Sprague-Dawley rats [2]; [7]): 84.0 ± 7.9 kcal | 1-H Total Caloric Intake (Male Sprague-Dawley rats [2]; [8]): 22.6 ± 1.7 kcal | 1-H Total Caloric Intake (Kcal) (Male Sprague-Dawley rats [2]; [9]): 29.9 ± 3.9^a Kcal | 12-H Total Caloric Intake (Male Sprague-Dawley rats [2]; [10]): 89.4 ± 6.4 kcal | 12-H Total Caloric Intake (Male Sprague-Dawley rats [2]; [11]): 85.4 ± 7.5 kcal | 1-H Total Caloric Intake (Male Sprague-Dawley rats [2]; [12]): 24.8 ± 4.4 kcal | 1-H Total Caloric Intake (Male Sprague-Dawley rats [2]; [13]): 23.9 ± 2.7 kcal | 12-H Total Caloric Intake (Male Sprague-Dawley rats [2]; [14]): 110.7 ± 10.7 kcal | 12-H Total Caloric Intake (Male Sprague-Dawley rats [2]; [15]): 97.0 ± 5.7 kcal | Effect on total caloric intake, in words (Male Sprague-Dawley rats [2]; Fat group, 1 h): no effect | Effect on total caloric intake, in words (Male Sprague-Dawley rats [2]; Fat group, 12 h): no effect | Effect on total caloric intake, in words (Male Sprague-Dawley rats [2]; Sugar group, 1 h): significantly increased | Effect on total caloric intake, in words (Male Sprague-Dawley rats [2]; Sugar group, 12 h): differences were no longer evident | Effect on total caloric intake, in words (Male Sprague-Dawley rats [2]; Sugar-Fat group, 1 h): no effect | Effect on total caloric intake, in words (Male Sprague-Dawley rats [2]; Sugar-Fat group, 12 h): no effect | Effect on intake of oil-containing palatable foods (rats; oil containing groups (Binge Fat, Binge Sugar/Fat)): trend toward reducing food intake | Effect on binge eating of sugar (rats; sugar-binging rats): no effect | 1-H Chow Intake (Male Sprague-Dawley rats [3]; [4]): 10.1 ± 1.2 kcal | 1-H Chow Intake (Male Sprague-Dawley rats [3]; [5]): 8.5 ± 1.1 kcal | 12-H Chow Intake (Male Sprague-Dawley rats [3]; [6]): 37.0 ± 3.4 kcal | 12-H Chow Intake (Male Sprague-Dawley rats [3]; [7]): 34.1 ± 4.3 kcal | 1-H Chow Intake (Male Sprague-Dawley rats [3]; [8]): 20.1 ± 1.3 kcal | 1-H Chow Intake (Male Sprague-Dawley rats [3]; [9]): 25.5 ± 3.2 kcal | 12-H Chow Intake (Kcal) (Male Sprague-Dawley rats [3]; [10]): 78.6 ± 4.7^b Kcal | 12-H Chow Intake (Kcal) (Male Sprague-Dawley rats [3]; [11]): 73.7 ± 5.1^a Kcal | 1-H Chow Intake (Male Sprague-Dawley rats [3]; [12]): 7.1 ± 0.9 kcal | 1-H Chow Intake (Male Sprague-Dawley rats [3]; [13]): 6.6 ± 1.0 kcal | Effect on standard chow intake, in words (Male Sprague-Dawley rats [3]; Binge Sugar-Fat group, 1 h): no effect | 12-H Chow Intake (Male Sprague-Dawley rats [3]; [14]): 27.4 ± 2.6 kcal | 12-H Chow Intake (Male Sprague-Dawley rats [3]; [15]): 26.4 ± 1.9 kcal | Effect on standard chow intake, in words (Male Sprague-Dawley rats [3]; Binge Sugar-Fat group, 12 h): no effect | Effect on standard chow intake, in words (Male Sprague-Dawley rats [3]; Fat group, 1 h): no effect | Effect on standard chow intake, in words (Male Sprague-Dawley rats [3]; Fat group, 12 h): no effect | Effect on standard chow intake, in words (Male Sprague-Dawley rats [3]; Sugar group, 1 h): no effect | Effect on standard chow intake, in words (Male Sprague-Dawley rats [3]; Sugar group, 12 h): stimulated chow intake
